# Legend:
# human recombinant HDAC1 = target: T1, human recombinant HDAC1 (Homo sapiens, UniProt Q13547); experiment: In vitro HDAC enzyme activity inhibition assay, HDAC1 (HDAC Fluorimetric Drug Discovery Kit); type: biochemical; conditions: human recombinant HDAC1, Fluor de Lys-SIRT1 substrate 10 μM, 30° C. for 60 minutes
# T1 construct: purchased Enzo Life Sciences, Inc. BML-SE456
# Procedure: (§1) In order to confirm the selectivity of the compounds represented by Chemical Formula I of the present invention to HDAC6 through HDAC1 and HDAC6 enzyme activity inhibition experiments, a comparison experiment was performed using the material that has already been developed as a control group.
# (§2) HDAC enzyme activity was measured using the HDAC Fluorimetric Drug Discovery Kit (Enzo Life Sciences, Inc., BML-AK511, 516). For the HDAC1 enzyme activity test, human recombinant HDAC1 (BML-SE456) was used as an enzyme source and Fluor de Lys®-SIRT1 (BNL-KI177) was used as a substrate. After dispensing 5-fold diluted compounds into a 96-well plate, 0.3 μg of enzyme and 10 μM substrate were added to each well of the plate and allowed to react at 30° C. for 60 minutes. Next, Fluor de Lys® Developer II (BML-KI176) was added and reacted for 30 minutes to complete the reaction, and then the fluorescence values (Ex 360, Em 460) were measured using a multi-plate reader (Flexstation 3, Molecular Device). The HDAC6 enzymes were tested using human recombinant HDAC6 (382180) from Calbiochem Inc., according to the same protocol as the HDAC1 enzyme activity test method. With respect to the final result values, respective IC50 values were calculated using GraphPad Prism 4.0 program, and results thereof were summarized in Table 5 below.
# human recombinant HDAC6 = target: T2, human recombinant HDAC6 (Homo sapiens, UniProt Q9UBN7); experiment: In vitro HDAC enzyme activity inhibition assay, HDAC6 (HDAC Fluorimetric Drug Discovery Kit); type: biochemical; conditions: for HDAC6 Selectivity (fold): HDAC6 versus HDAC1; for IC50: human recombinant HDAC6, same protocol as the HDAC1 test
# T2 construct: purchased Calbiochem Inc. 382180
# T2 sequence (Q9UBN7 1-1215): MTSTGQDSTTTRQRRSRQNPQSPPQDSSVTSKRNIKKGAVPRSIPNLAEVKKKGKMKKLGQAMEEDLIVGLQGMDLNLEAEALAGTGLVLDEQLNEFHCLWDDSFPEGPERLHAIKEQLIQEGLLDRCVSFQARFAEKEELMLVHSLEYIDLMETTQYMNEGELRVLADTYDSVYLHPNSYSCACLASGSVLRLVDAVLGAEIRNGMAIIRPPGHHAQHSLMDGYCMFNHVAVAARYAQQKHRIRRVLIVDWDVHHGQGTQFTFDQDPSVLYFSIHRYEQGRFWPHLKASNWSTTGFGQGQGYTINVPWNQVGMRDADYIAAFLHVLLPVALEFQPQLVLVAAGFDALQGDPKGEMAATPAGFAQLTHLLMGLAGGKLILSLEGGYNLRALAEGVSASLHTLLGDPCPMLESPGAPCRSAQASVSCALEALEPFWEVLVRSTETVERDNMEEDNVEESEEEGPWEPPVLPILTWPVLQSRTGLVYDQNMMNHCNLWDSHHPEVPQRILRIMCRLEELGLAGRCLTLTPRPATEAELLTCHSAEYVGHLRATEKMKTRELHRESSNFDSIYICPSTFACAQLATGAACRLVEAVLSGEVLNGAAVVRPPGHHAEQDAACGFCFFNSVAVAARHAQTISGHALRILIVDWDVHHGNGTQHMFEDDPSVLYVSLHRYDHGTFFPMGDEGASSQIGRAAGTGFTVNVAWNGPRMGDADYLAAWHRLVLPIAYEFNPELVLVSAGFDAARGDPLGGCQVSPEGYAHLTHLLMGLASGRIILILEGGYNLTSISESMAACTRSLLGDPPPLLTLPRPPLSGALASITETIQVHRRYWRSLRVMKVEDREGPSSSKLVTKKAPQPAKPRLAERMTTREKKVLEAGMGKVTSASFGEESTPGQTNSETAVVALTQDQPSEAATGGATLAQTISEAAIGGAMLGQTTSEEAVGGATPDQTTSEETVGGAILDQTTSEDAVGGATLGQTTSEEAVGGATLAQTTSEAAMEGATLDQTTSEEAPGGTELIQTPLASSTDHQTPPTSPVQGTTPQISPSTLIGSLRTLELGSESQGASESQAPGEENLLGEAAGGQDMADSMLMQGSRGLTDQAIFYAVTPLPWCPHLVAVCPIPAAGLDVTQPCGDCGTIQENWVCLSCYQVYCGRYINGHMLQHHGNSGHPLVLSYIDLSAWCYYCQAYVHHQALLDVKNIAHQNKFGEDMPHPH
# Procedure: as §1, §2
# T1 sequence (Q13547 whole entry): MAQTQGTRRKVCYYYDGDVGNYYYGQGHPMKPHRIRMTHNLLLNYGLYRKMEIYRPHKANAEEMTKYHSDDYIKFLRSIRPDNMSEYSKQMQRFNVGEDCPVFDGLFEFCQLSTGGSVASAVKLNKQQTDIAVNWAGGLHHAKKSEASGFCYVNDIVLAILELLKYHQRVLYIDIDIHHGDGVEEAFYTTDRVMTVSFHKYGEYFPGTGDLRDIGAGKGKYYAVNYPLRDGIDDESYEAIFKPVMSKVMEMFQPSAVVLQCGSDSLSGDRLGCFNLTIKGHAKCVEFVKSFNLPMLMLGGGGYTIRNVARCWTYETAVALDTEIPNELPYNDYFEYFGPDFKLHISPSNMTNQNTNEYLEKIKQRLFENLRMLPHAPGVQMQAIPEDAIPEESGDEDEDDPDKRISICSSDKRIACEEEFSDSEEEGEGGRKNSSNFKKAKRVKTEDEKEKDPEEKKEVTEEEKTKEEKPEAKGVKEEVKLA
IC50 (human recombinant HDAC1) [nM],HDAC6 Selectivity (fold) (human recombinant HDAC6),IC50 (human recombinant HDAC6) [nM],SMILES
> 50000,56,893,"FC(F)c1nnc(-c2ccn3cc(COc4ccc(C(F)(F)F)cc4)nc3c2)o1 [Compound 3724, 2-(difluoromethyl)-5-(2-((4-(trifluoromethyl)phenoxy)methyl)imidazo[1,2-a]pyridin-7-yl)-1,3,4-oxadiazole]"
> 50000,215,232,"O=C(CO)N1CCN(C(=O)N(Cc2cn3ccc(-c4nnc(C(F)F)o4)cc3n2)c2cccc(F)c2)CC1 [Compound 4094, N-((7-(5-(difluoromethyl)-1,3,4-oxadiazol-2-yl)imidazo[1,2-a]pyridin-2-yl)methyl)-N-(3-fluorophenyl)-4-(2-hydroxyacetyl)piperazine-1-carboxamide]"
> 50000,510,98,"CN1CC2(C1)CN(C(=O)N(Cc1cn3ccc(-c4nnc(C(F)F)o4)cc3n1)c1ccccc1)C2 [Compound 4625, N-((7-(5-(difluoromethyl)-1,3,4-oxadiazol-2-yl)imidazo[1,2-a]pyridin-2-yl)methyl)-6-methyl-N-phenyl-2,6-diazaspiro[3.3]heptan-2-carboxamide]"
> 50000,168,298,"COC(=O)N1CC(C(=O)N(Cc2cn3ccc(-c4nnc(C(F)F)o4)cc3n2)c2ccccc2)C1 [Compound 4174, methyl 3-(((7-(5-(difluoromethyl)-1,3,4-oxadiazol-2-yl)imidazo[1,2-a]pyridin-2-yl)methyl)(phenyl)carbamoyl) azetidine-1-carboxylate]"
> 50000,113,443,"O=C(N1CCN(C2CCCCC2)CC1)N(Cc1cn2ccc(-c3nnc(C(F)F)o3)cc2n1)c1cccc(F)c1 [Compound 4089, 4-cyclohexyl-N-((7-(5-(difluoromethyl)-1,3,4-oxadiazol-2-yl)imidazo[1,2-a]pyridin-2-yl)methyl)-N-(3-fluorophenyl)piperazine-1-carboxamide]"
> 50000,253,197,"O=C(C1CCN(C2CC3(COC3)C2)CC1)N(Cc1cn2ccc(-c3nnc(C(F)F)o3)cc2n1)c1cccc(F)c1 [Compound 4619, N-((7-(5-(difluoromethyl)-1,3,4-oxadiazol-2-yl)imidazo[1,2-a]pyridin-2-yl)methyl)-N-(3-fluorophenyl)-1-(2-oxaspiro[3.3]heptan-6-yl)piperidine-4-carboxamide]"
> 50000,118,425,"CCN1CC(C(=O)N(Cc2cn3ccc(-c4nnc(C(F)F)o4)cc3n2)c2ccccc2)C1 [Compound 4159, N-((7-(5-(difluoromethyl)-1,3,4-oxadiazol-2-yl)imidazo[1,2-a]pyridin-2-yl)methyl)-1-ethyl-N-phenylazetidine-3-carboxamide]"
> 50000,400,125,"CN(C)C(=O)N1CCN(C(=O)N(Cc2cn3ccc(-c4nnc(C(F)F)o4)cc3n2)c2ccccc2)CC1 [Compound 4047, N1-((7-(5-(difluoromethyl)-1,3,4-oxadiazol-2-yl)imidazo[1,2-a]pyridin-2-yl)methyl)-N4,N4-dimethyl-N1-phenylpiperazine-1,4-dicarboxamide]"
> 50000,308,162,"O=C(C1CCN(C2CC3(CCC3)C2)CC1)N(Cc1cn2ccc(-c3nnc(C(F)F)o3)cc2n1)c1cccc(F)c1 [Compound 4618, N-((7-(5-(difluoromethyl)-1,3,4-oxadiazol-2-yl)imidazo[1,2-a]pyridin-2-yl)methyl)-N-(3-fluorophenyl)-1-(spiro[3.3]heptan-2-yl)piperidine-4-carboxamide]"

# — patent US12522601B2, “1,3,4-oxadiazole derivative compounds as histone deacetylase 6 inhibitor, and the pharmaceutical composition comprising the same” (CHONG KUN DANG PHARMACEUTICAL CORP., priority 2020, dated 2026)
